Reference: patent publication US8927046B2, “Resveratrol compositions” (DSM IP Assets B.V., priority 2009, dated 2015)

Columns and labels:
Type in all cases: physicochemical
[1] = Deposits or visible recrystallization in beverages
Source text: Preparation: • Dissolve potassium sorbate in a small quantity of water. • Add citric acid solution, dry vitamin E 15% CC and resveratrol CWS. • Stir until all ingredients have dissolved. • Add sugar, stir again and add water to 1 liter. • Fill into appropriate packages and pasteurize or pasteurize and fill aseptically.
Preparation: • Dissolve potassium sorbate in a part of water under stirring. • Add resveratrol CWS under further stirring. • Add sugar syrup, ascorbic acid, citric acid solution, water-soluble flavour and beta-carotene solution, one after the other, under stirring (no high-speed mixer). • Dilute the bottling syrup to one liter of beverage. • Fill into appropriate packages and pasteurize or pasteurize and fill aseptically.

[2] = trans-resveratrol suspended in mineral drink water (Arkina) after pasteurization at 80° C. for 1 minute; HPLC concentration and deposit observation; conditions: for Concentration after 18 hours / Concentration after 5 days / Concentration initial: HPLC
Description: (§1) At 80° C. in water, resveratrol crystals need more than 15 minutes to dissolve completely to reach a concentration of 120 mg/liter. […] After the milling, the resveratrol CWS is dissolved within 1 minute at 80° C. 1 minute at 80° C. are standard conditions for the pasteurization step for the production of the beverages. This dissolution of the resveratrol during this pasteurization step ensures a good physical stability of the resveratrol in the beverages.
Different concentration of Resvida™ (resveratrol cryst.) not milled were dispersed in mineral drink water (Arkina) and pasteurized at 80° C. for 1 minute. The following results with trans-resveratrol suspended in water (analysis done with HPLC) have been obtained:
This powder was dissolved in mineral drink water (Arkina) and pasteurized at 80° C. for 1 minute. The following results with trans-resveratrol suspended in water (analysis done with HPLC) have been obtained: […]

[3] = Dissolution time in water at 80° C.; conditions: at 80° C. in water, to reach a concentration of 120 mg/liter
Description: as §1

[4] = theoretical concentration 81.5 mg/liter, mineral drink water, pasteurized 80° C. 1 minute
[5] = theoretical concentration 98.5 mg/liter, mineral drink water, pasteurized 80° C. 1 minute
[6] = theoretical concentration 119 mg/liter, mineral drink water, pasteurized 80° C. 1 minute
[7] = theoretical concentration 160 mg/liter, mineral drink water, pasteurized 80° C. 1 minute
[8] = theoretical concentration 205.5 mg/liter, mineral drink water, pasteurized 80° C. 1 minute

Which “deposit when used instead of the CWS form” value ([1]; near water beverage of Example 9) does the source give for `Oc1ccc(C=Cc2cc(O)cc(O)c2)cc1` [Resvida, 3,5,4′-trihydroxystilbene] here?
Its value is “a deposit remained which could not be dissolved”.

What about the “deposit when used instead of the CWS form” value ([1]; soft drink of Example 10) of the same compound?
Its value is “a deposit remains which can not be dissolved”.

And the “physical stability of resveratrol dissolved at 80° C.” value ([2]; at room temperature, after dissolution in water at 80° C.)?
Its value is “crystallize and make deposits within a couple of days”.

And the Observation [2, 4]?
The Observation was “Deposits +”.

What about the “Concentration after 18 hours” value [2, 4] of the same compound?
The value was 62.0 µg/mL.

What about the “Concentration after 5 days” value [2, 4] of the same compound?
The value was 65.0 µg/mL.

And the Concentration initial [2, 4]?
The Concentration initial was 71.8 µg/mL.

What about the “Concentration after 18 hours” value [2, 5] of the same compound?
Its value is 67.0 µg/mL.

What about the “Concentration after 5 days” value [2, 5] of the same compound?
Its value is 47.1 µg/mL.

And the Concentration initial [2, 5]?
Its Concentration initial is 87.4 µg/mL.

And the “Concentration after 18 hours” value [2, 6]?
Its value is 67.7 µg/mL.

What about the “Concentration after 5 days” value [2, 6] of the same compound?
Its value is 55.5 µg/mL.

What about the Concentration initial [2, 6] of the same compound?
Its Concentration initial is 102.6 µg/mL.

What about the “Concentration after 18 hours” value [2, 7] of the same compound?
The value was 67.5 µg/mL.

And the “Concentration after 5 days” value [2, 7]?
The value was 46.4 µg/mL.

What about the Concentration initial [2, 7] of the same compound?
The Concentration initial was 123.7 µg/mL.

And the “Concentration after 18 hours” value [2, 8]?
Its value is 61.3 µg/mL.

And the “Concentration after 5 days” value [2, 8]?
The value was 40.5 µg/mL.

And the Concentration initial [2, 8]?
Its Concentration initial is 142.0 µg/mL.

What about the “time to dissolve completely” value [3] of the same compound?
Its value is “more than 15 minutes”.
